These results are taken from patent US20230248723A1, “PYRROLO[2,3-B]PYRAZINE COMPOUNDS AS CCCDNA INHIBITORS FOR THE TREATMENT OF HEPATITIS B VIRUS (HBV) INFECTION” (Hoffmann-La Roche Inc., priority 2017, published 2023).

Holding throughout (assay type): cell-based
Holding throughout (conditions): Hepatitis B virus

The subject of one assay is HBsAg. Kind of assay: HBsAg, multiplex assay, HBV-infected PHH. On the procedure:
(§1) Fresh primary human hepatocytes (PXB-PHH) harvested from humanized mice (uPA/SCID mice)—herein called PHH—were obtained from PhoenixBio Co., Ltd (Japan). Cells were seeded on a collagen I-coated plate at the following cell density: 35,000 cells/well (384-well), 70,000 cells/well (96-well), or, 400,000 cells/well (24-well) in modified hepatocyte clonal growth medium (dHCGM). dHCGM is a DMEM medium containing 100 U/ml Penicillin, 100 μg/ml Streptomycin, 20 mM Hopes, 44 mM NaHCO3, 15 μg/ml L-proline, 0.25 μg/ml insulin, 50 nM Dexamethazone, 5 ng/ml EGF, 0.1 mM Asc-2P, 2% DMSO and 10% FBS (Ishida et al., 2015). Cells were cultured at 37° C. incubator in a humidified atmosphere with 5% CO2. Culture medium was replaced 24 h post-plating and every 2 days until harvest.
(§2) Following 4 day of maturation with 1 μM MB-1, HLC were incubated with HBV (purified from CHB individuals) at multiplicity of infection (MOI) 10-40 without PEG for 24 hr; virus inoculum was removed the following day. […] Compound treatment in HLC and PHH was started at day 3 post infection. Compound (in powder) was dissolved in DMSO; the final concentration of DMSO added to cells is 1%. Fresh compound was replenished every 2 day until cells were harvested at day 10 (PHH), or day 14 (HLC). Compound effect on HBV and cellular toxicity was measured by multiplex assay (HBsAg, HBeAg, albumin), branched DNA (pgRNA), or digital PCR (cccDNA) and depicted as % of inhibition compared to DMSO control. Graphs were prepared using Spotfire software.
A custom, Luminex-based multiplex assay that simultaneously measured HBeAg, albumin, and HBsAg was developed by Radix BioSolutions (Georgetown, Tex.). This is a sandwich immunoassay; each capture antibody was coupled with xMAP™ Luminex magnetic beads. The dynamic ranges of analyte detection are as follows: HBeAg (1-316 ng/ml), albumin (3.1-10,000 ng/ml), and HBsAg (0.1-100 ng/ml) with coefficient variant (CV) […]. Samples were read on FlexMAP 3D (Luminex) and analyzed by Genedata software.

A further assay relates to HBV DNA. The assay is described as follows: HBV DNA in culture medium of HBV-infected PHH. The text has this: FIG. 8: Establishment of dPCR assay for cccDNA quantification. […] A 3.2-kb, linearized plasmid HBV is used as a standard curve for relative quantification of HBV DNA by TaqMan-PCR. […] (B) Testing primer & PCR specificity and removal of excess RC-DNA. In contrast to TaqMan-PCR (relative quantification method), digital PCR (dPCR) is an absolute quantification method without the need of standard curve. […] First step—Testing primer and PCR specificity. Serum-derived HBV (contains RC-DNA, devoid of cccDNA) was used as a DNA template for dPCR using 2 sets of primers (for HBV core and cccDNA region) (Werle-Lapostolle et al., 2004). Samples were amplified by dPCR on QuantStudio 12K Flex Real-Time PCR System (AB); 4 subarrays (256 through-holes) were used for each sample. […] Second step—Removal of excess RC-DNA. PHH seeded in 96-well were infected with HBV. At day 6 pi, cell lysates were digested with Plasmid safe, ATP-dependent, DNAse (PSAD), T5 exonuclease, or, T5 exonuclease followed by EcoRI, for 1 hr at 37° C. Samples were amplified by dPCR using cccDNA primers on QuantStudio 12K Flex Real-Time PCR System (AB); 4 subarrays (256 through-holes) were used for each sample. […] Fresh medium and compound was replenished every 2 day. At day 10 pi, culture media were harvested and measured for HBV DNA, HBsAg, and HBeAg. Albumin was used as a surrogate of in vitro tox marker. Cells were lysed and treated with T5 exonuclease, cccDNA was then measured by dPCR on QuantStudio 12K Flex Real-Time PCR System (AB); 4 subarrays (256 through-holes) were used for each sample. […] Cells were treated with compounds at the indicated concentrations starting from day 3 post infection (patient-derived HBV, GT D). Fresh medium and compound was replenished every 2 day. Cells were harvested at day 10 pi; viral markers and albumin were measured from culture medium.
HBV from sera of CHB individuals were purified using OptiPrep™ (Axis-Shield, Norway) density gradient. Briefly, OptiPrep™ stock solution (60%) was diluted to 50% and 10% in PBS; equal volume of each solution was then added into SW41 tubes (BD Biosciences). Linear gradient was performed by placing the tubes on Gradient Master 108™ (Biocomp) at setting: 800, 25 rpm for 30″. Two hundred microliter (200 μl) of serum was overlaid on the top of gradient and samples were centrifuged at 100,000×g for 2 hours at 4° C. […] Fractions containing the peak of HBV DNA were pooled and used as virus inoculum for all infection experiments. All fractions were stored at −80° C. until used.
Fresh primary human hepatocytes (PXB-PHH) harvested from humanized mice (uPA/SCID mice)—herein called PHH—were obtained from PhoenixBio Co., Ltd (Japan).

For a further assay, the system named is pgRNA. The assay is described as follows: pgRNA assay (branched DNA), HBV-infected PHH. On the procedure:
as §1, §2
Levels of pgRNA in infected cells (96-well plate) were measured using QuantiGene Singleplex 2.0 assay (Affymetrix), a hybridization-based assay that utilizes the xMAP™ Luminex magnetic beads and branched DNA (bDNA) signal amplification technology. The assay is performed in 96-well plate according to manufacturer's recommendation. Briefly, cells were lysed and lysates were incubated with HBV probe sets panel at 50-55° C. for 30 min then stored at −80° C. Signal amplification is achieved via sequential hybridization of PreAmplifier, Amplifier, and Label Probe. After adding Streptavidin phycoerythrin (SAPE) substrate, the signal is read using a FlexMap 3D (Luminex) instrument.

Where two headings read alike, the source gives them in different places.

In the case of `O=C(NC(CO)CO)c1c[nH]c2ncc(C3CC3)nc12` [compound 7], the IC50 was found to be 0.33 µM with HBsAg (240 h, read-out: HBsAg IC50 (μM) Median, PHH, patient-derived HBV GT A, MOI 40, day 10 pi); 0.34 µM in the assay on HBsAg (240 h, read-out: HBsAg IC50 (μM) Median, PHH, patient-derived HBV GT B, MOI 40, day 10 pi); 0.3 µM with HBsAg (240 h, read-out: HBsAg IC50 (μM) Median, PHH, patient-derived HBV GT C, MOI 40, day 10 pi); 0.3 µM in the assay with HBsAg (240 h, read-out: HBsAg IC50 (μM) Median, PHH, patient-derived HBV GT D, MOI 40, day 10 pi (Table 5)); 9.98 µM with HBsAg (read-out: HBsAg IC50 (μM) Median, PHH, HepG2.2.15-derived HBV GT D, MOI 40); 8.98 µM with HBsAg (read-out: HBsAg IC50 (μM) Median, PHH, HepG2.2.15-derived HBV GT D, MOI 125). The IC50 is 0.45 µM in the assay on HBsAg (read-out: HBsAg IC50 (μM) Median, PHH, patient-derived HBV (GT D)); 0.44 µM in the assay on HBsAg (read-out: HBsAg IC50 (μM) Median, PHH, patient-derived HBV GT D, MOI 40 (Table 6)); 0.8 µM in the assay on HBsAg (read-out: HBsAg IC50 (μM) Median, PHH, patient-derived HBV GT D, MOI 125); 0.24 to 0.45 µM with HBsAg (read-out: HBsAg IC50s, PHH, patient-derived HBV GT A-D, range stated in text for HBsAg & HBeAg); 0.025 µM in the assay with HBV DNA (240 h, read-out: HBV DNA IC50 (μM) Median, PHH, patient-derived HBV GT A, MOI 40, day 10 pi); 0.023 µM with HBV DNA (240 h, read-out: HBV DNA IC50 (μM) Median, PHH, patient-derived HBV GT B, MOI 40, day 10 pi). Moreover, the IC50 in the assay on HBV DNA (240 h, read-out: HBV DNA IC50 (μM) Median, PHH, patient-derived HBV GT C, MOI 40, day 10 pi) was 0.02 µM; with HBV DNA (240 h, read-out: HBV DNA IC50 (μM) Median, PHH, patient-derived HBV GT D, MOI 40, day 10 pi (Table 5)), 0.023 µM; in the assay with HBV DNA (read-out: HBV DNA IC50s, PHH, patient-derived HBV GT A-D), 0.02 to 0.025 µM; with pgRNA (240 h, patient-derived HBV GT A, MOI 40, day 10 pi, read-out: pgRNA IC50 (μM) Median), 3.58 µM; in the assay on pgRNA (240 h, patient-derived HBV GT B, MOI 40, day 10 pi, read-out: pgRNA IC50 (μM) Median) it was 3.13 µM; with pgRNA (240 h, patient-derived HBV GT C, MOI 40, day 10 pi, read-out: pgRNA IC50 (μM) Median), 1.64 µM. Besides, the IC50 in the assay on pgRNA (240 h, patient-derived HBV GT D, MOI 40, day 10 pi (Table 5), read-out: pgRNA IC50 (μM) Median) is 1.35 µM; in the assay with pgRNA (HepG2.2.15-derived HBV GT D, MOI 40, read-out: pgRNA IC50 (μM) Median), 12.8 µM; in the assay on pgRNA (HepG2.2.15-derived HBV GT D, MOI 125, read-out: pgRNA IC50 (μM) Median) it was 11.3 µM; in the assay with pgRNA (patient-derived HBV GT D, MOI 40 (Table 6), read-out: pgRNA IC50 (μM) Median), 1.48 µM; in the assay on pgRNA (patient-derived HBV GT D, MOI 125, read-out: pgRNA IC50 (μM) Median), 2.87 µM; with pgRNA (patient-derived HBV, read-out: pgRNA IC50), 1.48 µM.
